Results reported in article PMC8758724, “Molecular mechanism of agonism and inverse agonism in ghrelin receptor” (Nature Communications, 2022).
No end group written: not given here. *: point of attachment. Octanoyl = CCCCCCCC(=O)*

Tested on: ghrelin receptor mutants
Assay: IP1 accumulation, ghrelin receptor mutants, HEK293 cells, 37 °C 2 h (compound 21 containing 10 nM ghrelin)
Type: cell-based, human
Settings: for ghrelin-induced activation, effect of mutation: peer review file
Excerpt: Fig. 2 The binding mode of PF-05190457 with the ghrelin receptor. a The detailed binding mode of PF-05190457 in the orthosteric pocket of the ghrelin receptor. The |Fo| − |Fc| omit map (contoured at 3.0 σ) for PF-05190457 (shown as marine blue sticks). […] The diazaspiro core is shown in pink, arm-1 is sky blue, and arm-2 is light green. The red solid lines indicate hydrogen bonds involved in interactions with the side chains of key residues. d–f Key residues of the ghrelin receptor (wheat sticks) involved in ligand binding in cavity III (d), cavity I (e), and cavity IV (f). The binding pocket is highly hydrophobic, and the particular polar network is shown as black dotted lines. g IP1 accumulation induced by the inverse agonist PF-05190457 and antagonist compound 21. Bars represent the difference in the calculated potency (pIC50) of the inverse agonist for mutations relative to the WT ghrelin receptor. Data are colored according to extent of effect. nd not detected, **P < 0.01, ***P < 0.001 (one-way analysis of variance (ANOVA) followed by Dunnett’s test, compared with the response of WT, P < 0.001, P < 0.001, P < 0.001, P > 0.999, nd, nd, P = 0.05, nd, P < 0.001, P < 0.001, nd, nd, nd, nd, nd, nd, P < 0.01, P = 0.264, P < 0.001, nd, P < 0.001, nd from left to right). Data represent the mean ± SEM from n = 3 biologically independent experiments performed in triplicate. […] The salt bridges between E124^3.33 and R283^6.55 as well as between R102^2.63 and Q120^3.29, are broken upon PF-05190457 binding.
To measure the activity of inverse agonist PF-05190457 (Tocris, Cat. No. 6350), we carried out IP1 accumulation assays for ghrelin receptor independent of agonist. The agonist ghrelin and antagonist compound 21 were also performed as the control. The cDNA of ghrelin receptor subcloned into pcDNA3.1(+) expression vector with a HA signal sequence followed by a Flag tag at the N-terminus. Point mutations used in our study were generated by using Q5 site-Directed Mutagenesis kit (NEB). All the constructs were verified by sequencing. The constructs were expressed in HEK293 cells using PEI transfection reagent (YEASEN, 40815es03) according to the manufacturer’s instruction. Cells were harvested 48 h post transfection.
IP accumulation was measured using Cisbio IP1 assay kit (Cisbio, 62IPAPEB), which has been previously described. In brief, the harvested cells were distributed in a low volume 96-well dish and stimulated with increased concentration of inverse agonist PF-05190457, agonist ghrelin peptide or antagonist compound 21 containing 10 nM ghrelin peptide at 37 °C for 2 h. After that, d2-labeled IP1 and cryptate-labeled anti-IP1 monoclonal antibody dissolved in Lysis Buffer were added to the wells. After 1 h incubation at room temperature. IP1 was quantified using Synergy H1 microplate reader (BioTek) with excitation at 320 nm, emission at 620 nm, and 665 nm. The accumulation of IP1 was calculated according to a standard dose–response curve in GraphPad Prism 8 (GraphPad Software). Data were represented as the mean ± SEM from three independent experiments and all experiments were repeated at least three times.
Supplementary Fig. 6: IP1 accumulation assay.
(a) Expression level of the ghrelin receptor mutants. Data represent the mean ± SEM from three independent experiments performed in triplicate. ns, not significant, **p < 0.01, ***p < 0.001 (one-way analysis of variance [ANOVA] followed by Dunnett’s test, compared with the response […]
0.001, p=0.996, p=0.008, p=0.999 from left to right). Data represent the mean ± SEM from n=3 biologically independent experiments performed in triplicate.
(b) IP1 accumulation measurement induced by inverse agonist PF-05190457(left), agonist ghrelin (middle) and antagonist compound 21 (right). ns, not significant; nd, not detected; ***p < 0.001 […]
< 0.001, nd, nd, nd, p=0.264, nd, nd from left to right). Data represent the mean ± SEM from […]

ghrelin: endogenous agonist, 28-amino acid peptide with octanoyl modification at the side chain of Ser+3 (GSS(Octanoyl)FLSPEHQRVQQRKESKKPPAKLQPR; UniProt Q9UBU3 24-51, looked up)
ghrelin-induced activation, effect of mutation (D99^2.60 mutant): decreased potency of ghrelin induced activation | potency, effect of mutation (F279^6.51A): impaired the potency | potency, effect of mutation (F312^7.42A): impaired the potency | ghrelin-induced activation, effect of mutation (R102^2.63 mutant): decreased potency of ghrelin induced activation | potency, effect of mutation (W276^6.48A): impaired the potency
